Source: ChEMBL document CHEMBL3885861, “Open TG-GATES”

Species: Rattus norvegicus
Experiment: Open TG-GATES - Regimen: Daily Repeat
Assay type: toxicity, organism-based, Sprague-Dawley
Design: regimen Daily Repeat, gender Male, age 6 weeks
Conditions: in vivo, po, 600 mg/kg, route gavage, dose level High; for APTT / Bas / Eos / Fbg / Hb / Ht / Lym / MCH / MCHC / MCV / Mono / Neu / PT / Plat / RBC / Ret / WBC: tissue Blood; for KIDNEY_L / KIDNEY_R / KIDNEY_TOTAL: tissue Kidney; for LIVER: tissue Liver; for A/G / ALP / ALT / AST / BUN / CRE / Ca / Cl / DBIL / GLC / IP / K / LDH / Na / PL / RALB / TBIL / TC / TG / TP / gamma-GTP: tissue Plasma

CCOC(=O)[C@H](CCc1ccccc1)N[C@@H](C)C(=O)N1CCC[C@H]1C(=O)O was tested, and the TERMINAL_BW (72 h, time 3 day) was 244.3 g, the APTT (72 h, time 3 day) was 16 s and the Bas (72 h, time 3 day) was 0%. The Eos (72 h, time 3 day) was 1.4%, the Fbg (72 h, time 3 day) was 232.8 mg/dL and the Hb (72 h, time 3 day) was 13 g/dL. It also gave a Ht (72 h, time 3 day) of 38.8%, a Lym (72 h, time 3 day) of 79.6% and an MCH (72 h, time 3 day) of 20.9 pg. For the same molecule, the MCHC (72 h, time 3 day) was 33.4%, the MCV (72 h, time 3 day) was 62.5 fL and the Mono (72 h, time 3 day) was 6.6%. For the same molecule, the Neu (72 h, time 3 day) was 12.2%, the PT (72 h, time 3 day) was 11.6 s and the Plat (72 h, time 3 day) was 116.5 x10_4/uL. For the same molecule, the RBC (72 h, time 3 day) was 620.6 x10_4/ul, the Ret (72 h, time 3 day) was 4.9% and the WBC (72 h, time 3 day) was 116.9 x10_2/uL. For the same molecule, the KIDNEY_L (72 h, time 3 day) was 1 g, the KIDNEY_R (72 h, time 3 day) was 1.1 g and the KIDNEY_TOTAL (72 h, time 3 day) was 2.1 g. The LIVER (72 h, time 3 day) was 11.4 g, the A/G (72 h, time 3 day) was 1.8 and the ALP (72 h, time 3 day) was 892.2 IU/L. The ALT (72 h, time 3 day) was 33.2 IU/L, the AST (72 h, time 3 day) was 58.2 IU/L and the BUN (72 h, time 3 day) was 25.2 mg/dL. It also gave a CRE (72 h, time 3 day) of 0.5 mg/dL, a Ca (72 h, time 3 day) of 11 mg/dL and a Cl (72 h, time 3 day) of 104 meq/L. For the same molecule, the DBIL (72 h, time 3 day) was 0.02 mg/dL, the GLC (72 h, time 3 day) was 193.2 mg/dL and the IP (72 h, time 3 day) was 8.9 mg/dL. The K (72 h, time 3 day) was 4.9 meq/L, the LDH (72 h, time 3 day) was 83.6 IU/L and the Na (72 h, time 3 day) was 138.8 meq/L. It also gave a PL (72 h, time 3 day) of 154.2 mg/dL, an RALB (72 h, time 3 day) of 3.8 g/dL and a TBIL (72 h, time 3 day) of 0.3 mg/dL. The TC (72 h, time 3 day) was 85.8 mg/dL, the TG (72 h, time 3 day) was 93.6 mg/dL and the TP (72 h, time 3 day) was 5.9 g/dL. For the same molecule, the gamma-GTP (72 h, time 3 day) was 1.4 IU/L, the TERMINAL_BW ([…], time 7 day) was 266.1 g and the TERMINAL_BW ([…], time 14 day) was 298.8 g. The TERMINAL_BW ([…], time 28 day) was 358.5 g, the APTT ([…], time 7 day) was 15.8 s and the Bas ([…], time 7 day) was 0%. For the same molecule, the Eos ([…], time 7 day) was 1.2%, the Fbg ([…], time 7 day) was 228.2 mg/dL and the Hb ([…], time 7 day) was 12.5 g/dL. It also gave a Ht ([…], time 7 day) of 37.8%, a Lym ([…], time 7 day) of 78.2% and an MCH ([…], time 7 day) of 21.1 pg. For the same molecule, the MCHC ([…], time 7 day) was 33.2%, the MCV ([…], time 7 day) was 63.8 fL and the Mono ([…], time 7 day) was 6.4%. It also gave a Neu ([…], time 7 day) of 14.8%, a PT ([…], time 7 day) of 11.7 s and a Plat ([…], time 7 day) of 110 x10_4/uL. For the same molecule, the RBC ([…], time 7 day) was 593.8 x10_4/ul, the Ret ([…], time 7 day) was 3.8% and the WBC ([…], time 7 day) was 113.9 x10_2/uL. The APTT ([…], time 14 day) was 16.5 s, the Bas ([…], time 14 day) was 0% and the Eos ([…], time 14 day) was 1.2%. The Fbg ([…], time 14 day) was 232.2 mg/dL, the Hb ([…], time 14 day) was 12.6 g/dL and the Ht ([…], time 14 day) was 37.8%. The Lym ([…], time 14 day) was 80%, the MCH ([…], time 14 day) was 20.7 pg and the MCHC ([…], time 14 day) was 33.4%. It also gave an MCV ([…], time 14 day) of 61.9 fL, a Mono ([…], time 14 day) of 4.2% and a Neu ([…], time 14 day) of 14.4%. For the same molecule, the PT ([…], time 14 day) was 11.7 s, the Plat ([…], time 14 day) was 102.3 x10_4/uL and the RBC ([…], time 14 day) was 611.2 x10_4/ul. For the same molecule, the Ret ([…], time 14 day) was 3.3%, the WBC ([…], time 14 day) was 122.6 x10_2/uL and the APTT ([…], time 28 day) was 16 s. It also gave a Bas ([…], time 28 day) of 0%, an Eos ([…], time 28 day) of 1% and a Fbg ([…], time 28 day) of 249.8 mg/dL. For the same molecule, the Hb ([…], time 28 day) was 13.9 g/dL, the Ht ([…], time 28 day) was 41.5% and the Lym ([…], time 28 day) was 84.2%. The MCH ([…], time 28 day) was 19.4 pg, the MCHC ([…], time 28 day) was 33.5% and the MCV ([…], time 28 day) was 57.9 fL. For the same molecule, the Mono ([…], time 28 day) was 4.8%, the Neu ([…], time 28 day) was 9.8% and the PT ([…], time 28 day) was 11.6 s. For the same molecule, the Plat ([…], time 28 day) was 114.3 x10_4/uL, the RBC ([…], time 28 day) was 717.4 x10_4/ul and the Ret ([…], time 28 day) was 5%. For the same molecule, the WBC ([…], time 28 day) was 148.4 x10_2/uL, the KIDNEY_L ([…], time 7 day) was 1.2 g and the KIDNEY_R ([…], time 7 day) was 1.3 g. The KIDNEY_TOTAL ([…], time 7 day) was 2.5 g, the KIDNEY_L ([…], time 14 day) was 1.3 g and the KIDNEY_R ([…], time 14 day) was 1.3 g. It also gave a KIDNEY_TOTAL ([…], time 14 day) of 2.7 g, a KIDNEY_L ([…], time 28 day) of 1.7 g and a KIDNEY_R ([…], time 28 day) of 1.7 g. For the same molecule, the KIDNEY_TOTAL ([…], time 28 day) was 3.4 g, the LIVER ([…], time 7 day) was 12.4 g and the LIVER ([…], time 14 day) was 13 g. The LIVER ([…], time 28 day) was 14.8 g, the A/G ([…], time 7 day) was 1.9 and the ALP ([…], time 7 day) was 795.8 IU/L. It also gave an ALT ([…], time 7 day) of 26.8 IU/L, an AST ([…], time 7 day) of 59 IU/L and a BUN ([…], time 7 day) of 40.4 mg/dL. It also gave a CRE ([…], time 7 day) of 0.6 mg/dL, a Ca ([…], time 7 day) of 10.6 mg/dL and a Cl ([…], time 7 day) of 105.2 meq/L. It also gave a DBIL ([…], time 7 day) of 0.002 mg/dL, a GLC ([…], time 7 day) of 199.6 mg/dL and an IP ([…], time 7 day) of 8 mg/dL. For the same molecule, the K ([…], time 7 day) was 5.1 meq/L, the LDH ([…], time 7 day) was 97 IU/L and the Na ([…], time 7 day) was 137.4 meq/L. The PL ([…], time 7 day) was 144 mg/dL, the RALB ([…], time 7 day) was 3.7 g/dL and the TBIL ([…], time 7 day) was 0.4 mg/dL. For the same molecule, the TC ([…], time 7 day) was 80.6 mg/dL, the TG ([…], time 7 day) was 85.2 mg/dL and the TP ([…], time 7 day) was 5.7 g/dL. For the same molecule, the gamma-GTP ([…], time 7 day) was 1.2 IU/L, the A/G ([…], time 14 day) was 1.8 and the ALP ([…], time 14 day) was 654.8 IU/L. It also gave an ALT ([…], time 14 day) of 26.8 IU/L, an AST ([…], time 14 day) of 58.6 IU/L and a BUN ([…], time 14 day) of 38.2 mg/dL. The CRE ([…], time 14 day) was 0.6 mg/dL, the Ca ([…], time 14 day) was 10.9 mg/dL and the Cl ([…], time 14 day) was 104.4 meq/L. For the same molecule, the DBIL ([…], time 14 day) was 0.006 mg/dL, the GLC ([…], time 14 day) was 191 mg/dL and the IP ([…], time 14 day) was 8.9 mg/dL. The K ([…], time 14 day) was 4.8 meq/L, the LDH ([…], time 14 day) was 90.4 IU/L and the Na ([…], time 14 day) was 137 meq/L. For the same molecule, the PL ([…], time 14 day) was 149 mg/dL, the RALB ([…], time 14 day) was 3.9 g/dL and the TBIL ([…], time 14 day) was 0.3 mg/dL. It also gave a TC ([…], time 14 day) of 78.8 mg/dL, a TG ([…], time 14 day) of 81.2 mg/dL and a TP ([…], time 14 day) of 6.1 g/dL. The gamma-GTP ([…], time 14 day) was 1.2 IU/L, the A/G ([…], time 28 day) was 1.7 and the ALP ([…], time 28 day) was 553.2 IU/L. It also gave an ALT ([…], time 28 day) of 23.8 IU/L, an AST ([…], time 28 day) of 65.2 IU/L and a BUN ([…], time 28 day) of 44 mg/dL. The CRE ([…], time 28 day) was 0.7 mg/dL, the Ca ([…], time 28 day) was 10.9 mg/dL and the Cl ([…], time 28 day) was 105.2 meq/L. The DBIL ([…], time 28 day) was 0.062 mg/dL, the GLC ([…], time 28 day) was 195.4 mg/dL and the IP ([…], time 28 day) was 7.4 mg/dL. It also gave a K ([…], time 28 day) of 4.9 meq/L, an LDH ([…], time 28 day) of 100.2 IU/L and a Na ([…], time 28 day) of 137.6 meq/L. For the same molecule, the PL ([…], time 28 day) was 150.2 mg/dL, the RALB ([…], time 28 day) was 3.9 g/dL and the TBIL ([…], time 28 day) was 0.3 mg/dL. It also gave a TC ([…], time 28 day) of 75.4 mg/dL, a TG ([…], time 28 day) of 97.8 mg/dL and a TP ([…], time 28 day) of 6.1 g/dL. For the same molecule, the gamma-GTP ([…], time 28 day) was 1.8 IU/L.
